Measured values published in patent US11400058B2, “Intravenous formulations of coenzyme Q10 (CoQ10) and methods of use thereof” (Berg LLC, priority 2010, dated 2022).
Marks after values point to notes of the source that are not given here.

Experiment: 4-week repeat-dose toxicology study in rats with 2-week recovery (Study 20000328)
[1] = 250 mg/kg F, end of dosing, animals of 10
[2] = 250 mg/kg F, end of recovery, animals of 5
[3] = 250 mg/kg M, end of dosing, animals of 10
[4] = 250 mg/kg M, end of recovery, animals of 5

Question: What does the source list for COC1=C(OC)C(=O)C(C/C=C(\C)CC/C=C(\C)CC/C=C(\C)CC/C=C(\C)CC/C=C(\C)CC/C=C(\C)CC/C=C(\C)CC/C=C(\C)CC/C=C(\C)CCC=C(C)C)=C(C)C1=O [CoQ10, Coenzyme Q10]?
Answer: Spleen Histiocytic Infiltration [1]: 10; Spleen Histiocytic Infiltration, Marked [1]: 2; Spleen Histiocytic Infiltration, Mild [1]: 1; Spleen Histiocytic Infiltration, Moderate [1]: 7; ALT (250 mg/kg F, end of recovery): 63* IU/L; APPT (250 mg/kg F, end of recovery): 14.7 s; AST (250 mg/kg F, end of recovery): 153* IU/L; Body Weight, percent difference from controls (250 mg/kg F, end of recovery): −12.6%; Food Consumption, percent difference from controls (250 mg/kg F, end of recovery): +0.7%; GGT (250 mg/kg F, end of recovery): 0.58* IU/L; Liver weight (absolute), percent difference from controls (250 mg/kg F, end of recovery): +19.6%; Spleen weight (absolute), percent difference from controls (250 mg/kg F, end of recovery): +82.7* %; Adrenal Gland Vacuolation [2]: 5; Adrenal Gland Vacuolation, Marked [2]: 1; Adrenal Gland Vacuolation, Mild [2]: 0; Adrenal Gland Vacuolation, Minimal [2]: 0; Adrenal Gland Vacuolation, Moderate [2]: 4; Gross Pathology: Enlarged Spleen [2]: 2; Gross Pathology: Pale Iliac Lymph Node [2]: 4; Gross Pathology: Pale Liver [2]: 5; Gross Pathology: Pale Ovaries [2]: 4; Gross Pathology: Pale Pancreatic Lymph Node [2]: 3; Liver Focal Necrosis [2]: 1; Liver Focal Necrosis, Mild [2]: 1; Liver Focal Necrosis, Minimal [2]: 0; Liver Histiocytic Infiltration [2]: 5; Liver Histiocytic Infiltration, Mild [2]: 1; Liver Histiocytic Infiltration, Minimal [2]: 0; Liver Histiocytic Infiltration, Moderate [2]: 4; Liver Multifocal Necrosis [2]: 1; Liver Multifocal Necrosis, Mild [2]: 0; Liver Multifocal Necrosis, Moderate [2]: 1; Liver Vacuolation [2]: 5; Liver Vacuolation, Mild [2]: 0; Liver Vacuolation, Minimal [2]: 0; Liver Vacuolation, Moderate [2]: 5; Lymph Node, Man. Histiocytic Infiltration [2]: 5; Lymph Node, Man. Histiocytic Infiltration, Mild [2]: 3; Lymph Node, Man. Histiocytic Infiltration, Minimal [2]: 1; Lymph Node, Man. Histiocytic Infiltration, Moderate [2]: 1; Lymph Node, Mes. Histiocytic Infiltration [2]: 5; Lymph Node, Mes. Histiocytic Infiltration, Mild [2]: 5; Lymph Node, Mes. Histiocytic Infiltration, Minimal [2]: 0; Ovary Histiocytic Infiltration [2]: 5; Ovary Histiocytic Infiltration, Mild [2]: 4; Ovary Histiocytic Infiltration, Minimal [2]: 0; Ovary Histiocytic Infiltration, Moderate [2]: 1; Spleen Histiocytic Infiltration [2]: 5; Spleen Histiocytic Infiltration, Marked [2]: 0; Spleen Histiocytic Infiltration, Mild [2]: 4; Spleen Histiocytic Infiltration, Minimal [2]: 1; Spleen Histiocytic Infiltration, Moderate [2]: 0; Died or Sacrificed Moribund (250 mg/kg M, animals of 15): 0; ALT (250 mg/kg M, end of dosing): 35* IU/L; APPT (250 mg/kg M, end of dosing): 14.7* seconds; AST (250 mg/kg M, end of dosing): 113* IU/L; Body Weight, percent difference from controls (250 mg/kg M, end of dosing): −17.6* %; Eosinophils (250 mg/kg M, end of dosing): 0.14* 10^3/cmm; Erythrocytes (250 mg/kg M, end of dosing): 6.23 10^6/cmm; Food Consumption, percent difference from controls (250 mg/kg M, end of dosing): −16.4* %; GGT (250 mg/kg M, end of dosing): 0.16 IU/L; Hematocrit (250 mg/kg M, end of dosing): 40.4* %; Hemoglobin (250 mg/kg M, end of dosing): 12.9* g/dL; Leukocytes (250 mg/kg M, end of dosing): 15.55* 10^3/cmm; Liver weight (absolute), percent difference from controls (250 mg/kg M, end of dosing): +11.0%; Lymphocytes (250 mg/kg M, end of dosing): 12.58 10^3/cmm; Neutrophils (250 mg/kg M, end of dosing): 2.13* 10^3/cmm; Spleen weight (absolute), percent difference from controls (250 mg/kg M, end of dosing): +65.9%; Adrenal Gland Vacuolation [3]: 10; Adrenal Gland Vacuolation, Mild [3]: 5; Adrenal Gland Vacuolation, Minimal [3]: 0; Adrenal Gland Vacuolation, Moderate [3]: 5; Bone Marrow, Sternum Hyperplasia [3]: 4; Bone Marrow, Sternum Hyperplasia, Mild [3]: 4; Bone Marrow, Sternum Hyperplasia, Minimal [3]: 0; Gross Pathology: Enlarged Pancreatic Lymph Nodes [3]: 5; Gross Pathology: Pale Adrenal [3]: 4; Gross Pathology: Pale Liver [3]: 10; Gross Pathology: Pale Lymph Nodes [3]: 8; Gross Pathology: Pale Pituitary [3]: 3; Gross Pathology: Pale SQ Skin [3]: 0; Injection Site Mononuclear Cell Infiltration [3]: 10; Injection Site Mononuclear Cell Infiltration, Marked [3]: 1; Injection Site Mononuclear Cell Infiltration, Mild [3]: 0; Injection Site Mononuclear Cell Infiltration, Minimal [3]: 0; Injection Site Mononuclear Cell Infiltration, Moderate [3]: 9; Liver Focal Necrosis [3]: 0; Liver Focal Necrosis, Minimal [3]: 0; Liver Histiocytic Infiltration [3]: 10; Liver Histiocytic Infiltration, Mild [3]: 7; Liver Histiocytic Infiltration, Minimal [3]: 1; Liver Histiocytic Infiltration, Moderate [3]: 2; Liver Vacuolation [3]: 10; Liver Vacuolation, Mild [3]: 10; Liver Vacuolation, Minimal [3]: 0; Lymph Node, Man. Histiocytic Infiltration [3]: 9; Lymph Node, Man. Histiocytic Infiltration, Mild [3]: 3; Lymph Node, Man. Histiocytic Infiltration, Minimal [3]: 0; Lymph Node, Man. Histiocytic Infiltration, Moderate [3]: 6; Lymph Node, Mes. Histiocytic Infiltration [3]: 9; Lymph Node, Mes. Histiocytic Infiltration, Mild [3]: 7; Lymph Node, Mes. Histiocytic Infiltration, Minimal [3]: 1; Lymph Node, Mes. Histiocytic Infiltration, Moderate [3]: 1; Skin, Dermis Histiocytic Infiltration [3]: 0; Skin, Dermis Histiocytic Infiltration, Marked [3]: 0; Skin, Dermis Histiocytic Infiltration, Mild [3]: 0; Skin, Dermis Histiocytic Infiltration, Moderate [3]: 0; Skin, SQ Histiocytic Infiltration [3]: 0; Skin, SQ Histiocytic Infiltration, Mild [3]: 0; Spleen Histiocytic Infiltration [3]: 10; Spleen Histiocytic Infiltration, Marked [3]: 1; Spleen Histiocytic Infiltration, Mild [3]: 0; Spleen Histiocytic Infiltration, Moderate [3]: 9; ALT (250 mg/kg M, end of recovery): 96* IU/L; APPT (250 mg/kg M, end of recovery): 15.3* seconds; AST (250 mg/kg M, end of recovery): 213* IU/L; Body Weight, percent difference from controls (250 mg/kg M, end of recovery): −15.0* %; Food Consumption, percent difference from controls (250 mg/kg M, end of recovery): −14.1%; GGT (250 mg/kg M, end of recovery): 0.42 IU/L; Liver weight (absolute), percent difference from controls (250 mg/kg M, end of recovery): +7.6%; Spleen weight (absolute), percent difference from controls (250 mg/kg M, end of recovery): +38.7* %; Adrenal Gland Vacuolation [4]: 4; Adrenal Gland Vacuolation, Marked [4]: 0; Adrenal Gland Vacuolation, Mild [4]: 2; Adrenal Gland Vacuolation, Minimal [4]: 0; Adrenal Gland Vacuolation, Moderate [4]: 2; Gross Pathology: Enlarged Spleen [4]: 4; Gross Pathology: Pale Iliac Lymph Node [4]: 3; Gross Pathology: Pale Liver [4]: 5; Gross Pathology: Pale Pancreatic Lymph Node [4]: 3; Liver Focal Necrosis [4]: 2; Liver Focal Necrosis, Mild [4]: 1; Liver Focal Necrosis, Minimal [4]: 0; Liver Histiocytic Infiltration [4]: 5; Liver Histiocytic Infiltration, Mild [4]: 4; Liver Histiocytic Infiltration, Minimal [4]: 1; Liver Histiocytic Infiltration, Moderate [4]: 0; Liver Multifocal Necrosis [4]: 1; Liver Multifocal Necrosis, Mild [4]: 1; Liver Multifocal Necrosis, Moderate [4]: 0; Liver Vacuolation [4]: 5; Liver Vacuolation, Mild [4]: 0; Liver Vacuolation, Minimal [4]: 0; Liver Vacuolation, Moderate [4]: 5; Lymph Node, Man. Histiocytic Infiltration [4]: 5; Lymph Node, Man. Histiocytic Infiltration, Mild [4]: 1; Lymph Node, Man. Histiocytic Infiltration, Minimal [4]: 2; Lymph Node, Man. Histiocytic Infiltration, Moderate [4]: 2; Lymph Node, Mes. Histiocytic Infiltration [4]: 5; Lymph Node, Mes. Histiocytic Infiltration, Mild [4]: 5; Lymph Node, Mes. Histiocytic Infiltration, Minimal [4]: 0; Spleen Histiocytic Infiltration [4]: 5; Spleen Histiocytic Infiltration, Marked [4]: 1; Spleen Histiocytic Infiltration, Mild [4]: 3; Spleen Histiocytic Infiltration, Minimal [4]: 0; Spleen Histiocytic Infiltration, Moderate [4]: 1
